Measured values reported in patent US8580802B2, “Pyrrolo[2,3-D]pyrimidines as inhibitors of Janus kinases” (Vertex Pharmaceuticals Incorporated, priority 2005, dated 2013).
Counter-ions that a name gives are not always drawn.

Tests used:
JAK2 = JAK2 (Homo sapiens, UniProt O60674); experiment: JAK2 Inhibition Assay; type: biochemical; conditions: JAK-2 enzyme, 15 μM poly(Glu)4Tyr, 12 μM ATP
Experimental: (§1) Compounds were screened for their ability to inhibit JAK3 using the assay shown below. Reactions were carried out in a kinase buffer containing 100 mM HEPES (pH 7.4), 1 mM DTT, 10 mM MgCl2, 25 mM NaCl, and 0.01% BSA. Substrate concentrations in the assay were 5 μM ATP (200 uCi/μmole ATP) and 1 μM poly(Glu)4Tyr. Reactions were carried out 25° C. and 1 nM JAK3.
(§2) To each well of a 96 well polycarbonate plate was added 1.5 μl of a candidate JAK3 inhibitor along with 50 μl of kinase buffer containing 2 μM poly(Glu)4Tyr and 10 μM ATP. This was then mixed and 50 μl of kinase buffer containing 2 nM JAK3 enzyme was added to start the reaction. After 20 minutes at room temperature (25° C.), the reaction was stopped with 50 μl of 20% trichloroacetic acid (TCA) that also contained 0.4 mM ATP. The entire contents of each well were then transferred to a 96 well glass fiber filter plate using a TomTek Cell Harvester. After washing, 60 μl of scintillation fluid was added and ^33P incorporation detected on a Perkin Elmer TopCount.
The assays were as described above in Example 36 except that JAK-2 enzyme was used, the final poly(Glu)4Tyr concentration was 15 μM, and final ATP concentration was 12 μM.

JAK3 = biological target: T1, JAK3 (Homo sapiens, UniProt P52333); experiment: JAK3 Inhibition Assay; type: biochemical; conditions: 1 nM JAK3, 1 μM poly(Glu)4Tyr, 5 μM ATP, 25° C.; read-out: enzyme inhibition data (Ki) JAK3
T1 sequence (P52333 1-1124): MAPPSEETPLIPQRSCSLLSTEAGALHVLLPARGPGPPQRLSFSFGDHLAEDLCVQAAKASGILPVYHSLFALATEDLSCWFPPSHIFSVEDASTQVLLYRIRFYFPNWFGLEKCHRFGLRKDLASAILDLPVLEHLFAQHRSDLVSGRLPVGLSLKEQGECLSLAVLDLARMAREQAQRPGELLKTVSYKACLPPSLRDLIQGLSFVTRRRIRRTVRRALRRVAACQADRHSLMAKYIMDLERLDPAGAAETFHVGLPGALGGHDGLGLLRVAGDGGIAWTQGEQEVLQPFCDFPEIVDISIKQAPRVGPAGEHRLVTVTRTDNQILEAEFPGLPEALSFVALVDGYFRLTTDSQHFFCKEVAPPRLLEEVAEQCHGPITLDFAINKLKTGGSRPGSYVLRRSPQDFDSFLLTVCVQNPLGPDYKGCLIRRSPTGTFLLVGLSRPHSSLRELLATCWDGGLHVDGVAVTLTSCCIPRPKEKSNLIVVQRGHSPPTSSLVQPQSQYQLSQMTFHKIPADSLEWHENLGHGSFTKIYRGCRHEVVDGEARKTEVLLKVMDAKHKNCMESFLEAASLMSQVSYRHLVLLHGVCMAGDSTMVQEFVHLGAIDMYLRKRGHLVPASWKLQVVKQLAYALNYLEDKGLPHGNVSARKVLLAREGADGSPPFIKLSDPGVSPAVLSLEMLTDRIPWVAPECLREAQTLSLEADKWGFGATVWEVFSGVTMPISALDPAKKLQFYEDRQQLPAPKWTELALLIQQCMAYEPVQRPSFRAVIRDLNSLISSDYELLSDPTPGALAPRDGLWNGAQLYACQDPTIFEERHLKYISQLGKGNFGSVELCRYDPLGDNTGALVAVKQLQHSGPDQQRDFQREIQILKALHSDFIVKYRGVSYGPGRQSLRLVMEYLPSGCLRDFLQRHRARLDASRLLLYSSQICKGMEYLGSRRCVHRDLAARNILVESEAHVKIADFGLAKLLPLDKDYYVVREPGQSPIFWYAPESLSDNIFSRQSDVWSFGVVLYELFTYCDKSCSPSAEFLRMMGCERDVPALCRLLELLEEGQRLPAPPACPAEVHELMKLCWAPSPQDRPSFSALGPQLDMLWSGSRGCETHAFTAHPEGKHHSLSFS
Experimental: as §1, §2

JAK2, sequence (O60674 whole entry): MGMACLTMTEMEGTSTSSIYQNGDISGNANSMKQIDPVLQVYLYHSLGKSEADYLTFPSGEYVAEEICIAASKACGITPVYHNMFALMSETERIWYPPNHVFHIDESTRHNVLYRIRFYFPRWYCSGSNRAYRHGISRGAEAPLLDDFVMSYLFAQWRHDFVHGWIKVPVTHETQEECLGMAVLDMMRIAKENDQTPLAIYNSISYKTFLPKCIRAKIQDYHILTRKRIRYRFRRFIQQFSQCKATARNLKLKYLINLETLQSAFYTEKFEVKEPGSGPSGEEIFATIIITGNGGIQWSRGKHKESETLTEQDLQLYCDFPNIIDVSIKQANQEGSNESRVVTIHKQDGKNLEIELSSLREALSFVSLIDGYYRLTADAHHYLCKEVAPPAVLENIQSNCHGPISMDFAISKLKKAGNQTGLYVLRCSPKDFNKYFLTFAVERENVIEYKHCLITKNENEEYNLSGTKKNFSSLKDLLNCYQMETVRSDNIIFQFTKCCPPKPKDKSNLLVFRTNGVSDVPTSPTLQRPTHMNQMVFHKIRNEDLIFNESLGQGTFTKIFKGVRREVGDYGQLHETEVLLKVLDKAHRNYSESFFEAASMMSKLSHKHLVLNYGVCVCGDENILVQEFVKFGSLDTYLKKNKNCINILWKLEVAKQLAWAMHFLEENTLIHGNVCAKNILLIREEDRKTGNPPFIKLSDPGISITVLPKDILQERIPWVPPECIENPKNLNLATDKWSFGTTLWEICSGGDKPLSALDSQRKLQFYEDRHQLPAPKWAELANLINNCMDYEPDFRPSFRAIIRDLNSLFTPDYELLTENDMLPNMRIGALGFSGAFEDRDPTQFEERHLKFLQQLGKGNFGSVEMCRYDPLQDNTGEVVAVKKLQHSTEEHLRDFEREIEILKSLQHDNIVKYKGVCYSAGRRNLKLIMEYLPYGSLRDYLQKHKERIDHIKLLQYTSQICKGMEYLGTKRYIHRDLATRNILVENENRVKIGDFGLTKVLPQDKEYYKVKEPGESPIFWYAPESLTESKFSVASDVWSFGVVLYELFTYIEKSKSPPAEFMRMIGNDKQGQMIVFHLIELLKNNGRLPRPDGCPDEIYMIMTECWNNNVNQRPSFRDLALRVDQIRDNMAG

| Compound | Ki (JAK2) | Ki (JAK3) |
| --- | --- | --- |
| CC(=O)N1[C@H](C)CN(c2cccc(-c3c[nH]c4ncncc34)n2)C[C@@H]1C [Compound 1, 1-((2S,6R)-4-(6-(7H-pyrrolo[2,3-d]pyrimidin-5-yl)pyridin-2-yl)-2,6-dimethylpiperazin-1-yl)ethanone] | < 500 nM | < 500 nM |
| CCOC(=O)c1cc(N[C@@H](C)C(=O)NCC(F)(F)F)nc(-c2c[nH]c3ncncc23)n1 [Compound 2] | > 5000 nM | 500 to 5000 nM |
| C[C@H](Nc1cc(C(=O)O)nc(-c2c[nH]c3ncncc23)n1)C(=O)NCC(F)(F)F [Compound 3, 6-((S)-1-(2,2,2-trifluoroethylcarbamoyl)ethylamino)-2-(7H-pyrrolo[2,3-d]pyrimidin-5-yl)pyrimidine-4-carboxylic acid] | > 5000 nM | < 500 nM |
| C[C@H](Nc1cccc(-c2c[nH]c3ncncc23)n1)C(=O)NCC(F)(F)F [Compound 4, (S)-2-(6-(7H-pyrrolo[2,3-d]pyrimidin-5-yl)pyridin-2-ylamino)-N-(2,2,2-trifluoroethyl)propanamide] | < 500 nM | < 500 nM |
| C[C@H](Nc1ccnc(-c2c[nH]c3ncncc23)n1)C(=O)NCC(F)(F)F [Compound 5, (S)-2-(2-(7H-pyrrolo[2,3-d]pyrimidin-5-yl)pyrimidin-4-ylamino)-N-(2,2,2-trifluoroethyl)propanamide] | < 500 nM | < 500 nM |
| C[C@H](Nc1nc(-c2c[nH]c3ncncc23)ncc1F)C(=O)NCC(F)(F)F [Compound 6, (S)-2-(5-fluoro-2-(7H-pyrrolo[2,3-d]pyrimidin-5-yl)pyrimidin-4-ylamino)-N-(2,2,2-trifluoroethyl)propanamide] | < 500 nM | < 500 nM |
| CC1CCN(C(=O)c2cc(N[C@@H](C)C(=O)NCC(F)(F)F)nc(-c3c[nH]c4ncncc34)n2)CC1 [Compound 7] | 500 to 5000 nM | < 500 nM |
| C[C@H](Nc1cc(C(=O)N2CCC[C@H]2CO)nc(-c2c[nH]c3ncncc23)n1)C(=O)NCC(F)(F)F [Compound 8] | 500 to 5000 nM | < 500 nM |
| C[C@H](Nc1cc(C(=O)N2CCCC2)nc(-c2c[nH]c3ncncc23)n1)C(=O)NCC(F)(F)F [Compound 9] | 500 to 5000 nM | < 500 nM |
| C[C@H](Nc1cc(OC2CCOC2)nc(-c2c[nH]c3ncncc23)n1)C(=O)NCC(F)(F)F (some centres unmarked) [Compound 10] | > 5000 nM | 500 to 5000 nM |
| COC[C@H]1CCCN1C(=O)c1cc(N[C@@H](C)C(=O)NCC(F)(F)F)nc(-c2c[nH]c3ncncc23)n1 [Compound 11] | > 5000 nM | 500 to 5000 nM |
| C[C@H](Nc1cc(C(=O)N2CCOCC2)nc(-c2c[nH]c3ncncc23)n1)C(=O)NCC(F)(F)F [Compound 12] | 500 to 5000 nM | < 500 nM |
| C[C@H](Nc1cc(C(=O)N2CCC(O)CC2)nc(-c2c[nH]c3ncncc23)n1)C(=O)NCC(F)(F)F [Compound 13] | 500 to 5000 nM | 500 to 5000 nM |
| COCCNC(=O)c1cc(N[C@@H](C)C(=O)NCC(F)(F)F)nc(-c2c[nH]c3ncncc23)n1 [Compound 14] | 500 to 5000 nM | < 500 nM |
| C[C@H](Nc1cc(C(=O)N(C)CCO)nc(-c2c[nH]c3ncncc23)n1)C(=O)NCC(F)(F)F [Compound 15] | 500 to 5000 nM | 500 to 5000 nM |
| CC(C)[C@H](C)NC(=O)c1cc(N[C@@H](C)C(=O)NCC(F)(F)F)nc(-c2c[nH]c3ncncc23)n1 [Compound 16] | 500 to 5000 nM | 500 to 5000 nM |
| C[C@H](Nc1cc(C(=O)N(C)Cc2ccccc2)nc(-c2c[nH]c3ncncc23)n1)C(=O)NCC(F)(F)F [Compound 17] | 500 to 5000 nM | 500 to 5000 nM |
| C[C@H](Nc1cc(-c2ccccc2)nc(-c2c[nH]c3ncncc23)n1)C(=O)NCC(F)(F)F [Compound 18, (S)-2-(6-phenyl-2-(7H-pyrrolo[2,3-d]pyrimidin-5-yl)pyrimidin-4-ylamino)-N-(2,2,2-trifluoroethyl)propanamide] | 500 to 5000 nM | < 500 nM |
| C[C@H](Nc1cc(C#N)cc(-c2c[nH]c3ncncc23)n1)C(=O)NCC(F)(F)F [Compound 19, (S)-2-(4-cyano-6-(7H-pyrrolo[2,3-d]pyrimidin-5-yl)pyridin-2-ylamino)-N-(2,2,2-trifluoroethyl)propanamide] | 500 to 5000 nM | < 500 nM |

Continued, values first:

| Ki (JAK2) | Ki (JAK3) | Compound |
| --- | --- | --- |
| 500 to 5000 nM | < 500 nM | C[C@H](Nc1cc(-c2nnn[nH]2)cc(-c2c[nH]c3ncncc23)n1)C(=O)NCC(F)(F)F [Compound 20, (S)-2-(6-(7H-pyrrolo[2,3-d]pyrimidin-5-yl)-4-(1H-tetrazol-5-yl)pyridin-2-ylamino)-N-(2,2,2-trifluoroethyl)propanamide] |
| 500 to 5000 nM | 500 to 5000 nM | OC[C@@H]1CCCN1c1nc(-c2c[nH]c3ncncc23)ncc1F [Compound 21, ((S)-1-(5-fluoro-2-(7H-pyrrolo[2,3-d]pyrimidin-5-yl)pyrimidin-4-yl)pyrrolidin-2-yl)methanol] |
| 500 to 5000 nM | 500 to 5000 nM | OC[C@H]1CCCN1c1nc(-c2c[nH]c3ncncc23)ncc1F [Compound 22, ((R)-1-(5-fluoro-2-(7H-pyrrolo[2,3-d]pyrimidin-5-yl)pyrimidin-4-yl)pyrrolidin-2-yl)methanol] |
| 500 to 5000 nM | 500 to 5000 nM | COC[C@@H]1CCCN1c1nc(-c2c[nH]c3ncncc23)ncc1F [Compound 23, 5-(5-fluoro-4-((S)-2-(methoxymethyl)pyrrolidin-1-yl)pyrimidin-2-yl)-7H-pyrrolo[2,3-d]pyrimidine] |
| 500 to 5000 nM | 500 to 5000 nM | Fc1cnc(-c2c[nH]c3ncncc23)nc1N1CCCC1 [Compound 24, 5-(5-fluoro-4-(pyrrolidin-1-yl)pyrimidin-2-yl)-7H-pyrrolo[2,3-d]pyrimidine] |
| 500 to 5000 nM | 500 to 5000 nM | COC[C@H]1CCCN1c1nc(-c2c[nH]c3ncncc23)ncc1F [Compound 25, 5-(5-fluoro-4-((R)-2-(methoxymethyl)pyrrolidin-1-yl)pyrimidin-2-yl)-7H-pyrrolo[2,3-d]pyrimidine] |
| > 5000 nM | 500 to 5000 nM | O=C(NCC(F)(F)F)[C@@H]1CCCN1c1nc(-c2c[nH]c3ncncc23)ncc1F [Compound 26] |
| < 500 nM | < 500 nM | O=C(NCC(F)(F)F)[C@H]1CCCN1c1nc(-c2c[nH]c3ncncc23)ncc1F [Compound 27] |
| 500 to 5000 nM | 500 to 5000 nM | CC(C)(C)OC(=O)N1CC=C(c2cccc(-c3c[nH]c4ncncc34)n2)CC1 [Compound 28, 6-(7H-Pyrrolo[2,3-d]pyrimidin-5-yl)-3′,6′-dihydro-2′H-[2,4′]bipyridinyl-1′-carboxylic acid tert-butyl ester] |
| 500 to 5000 nM | 500 to 5000 nM | C1=C(c2cccc(-c3c[nH]c4ncncc34)n2)CCNC1 [Compound 29, 6-(7H-Pyrrolo[2,3-d]pyrimidin-5-yl)-1′,2′,3′,6′-tetrahydro-[2,4′]bipyridinyl hydrochloride] |
| < 500 nM | < 500 nM | N#CCC(=O)N1CC=C(c2cccc(-c3c[nH]c4ncncc34)n2)CC1 [Compound 30, 3-(4-(6-(7H-pyrrolo[2,3-d]pyrimidin-5-yl)pyridin-2-yl)-5,6-dihydropyridin-1(2H)-yl)-3-oxopropanenitrile] |
| > 5000 nM | 500 to 5000 nM | C[C@H](Nc1nc(-c2c[nH]c3ncncc23)cc(N2CCCC2)n1)C(=O)NCC(F)(F)F [Compound 31, (S)-2-(4-(pyrrolidin-1-yl)-6-(7H-pyrrolo[2,3-d]pyrimidin-5-yl)pyrimidin-2-ylamino)-N-(2,2,2-trifluoroethyl)propanamide] |
